Test results taken from the supplement of paper PMC10307832.

Legend:
Test in all cases: relative viability (nuclei count vs DMSO), 5 days (fraction); higher = more cells survive
[1] = compound: CN1CCN(c2ccc3nc(-c4c(N)c5c(F)cccc5[nH]c4=O)[nH]c3c2)CC1 [Dovitinib] + CC(=O)Nc1cccc(-n2c(=O)n(C3CC3)c(=O)c3c(Nc4ccc(I)cc4F)n(C)c(=O)c(C)c32)c1 [Trametinib] (partner 0.02 µM)
Procedure, shortened: (§1)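 Relative viability is defined as nuclei in treated wells over nuclei in vehicle wells. Duplicate plates were run and medians reported. Lung cancer cell lines in 1536-well plates were dosed by pin tool one day after seeding, with one drug or with a fixed anchor-drug dose plus five library-drug doses (not always all listed) in √10 steps, and nuclei were counted after 5 days.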

[2] = compound: CN1CCN(c2ccc3nc(-c4c(N)c5c(F)cccc5[nH]c4=O)[nH]c3c2)CC1 [Dovitinib] + O=C(c1cc(Cc2n[nH]c(=O)c3ccccc23)ccc1F)N1CCN(C(=O)C2CC2)CC1 [Olaparib] (partner 8 µM)
Procedure, shortened: as §1

[3] = compound: CN1CCN(c2ccc3nc(-c4c(N)c5c(F)cccc5[nH]c4=O)[nH]c3c2)CC1 [Dovitinib] + CS(=O)(=O)CCNCc1ccc(-c2ccc3ncnc(Nc4ccc(OCc5cccc(F)c5)c(Cl)c4)c3c2)o1 [Lapatinib] (partner 2 µM)
Procedure, shortened: as §1

[4] = compound: CN1CCN(c2ccc3nc(-c4c(N)c5c(F)cccc5[nH]c4=O)[nH]c3c2)CC1 [Dovitinib] + N=C(N)NC(=N)NCCc1ccccc1 [Phenformin] (partner 250 µM)
Procedure, shortened: as §1

Cell Line	relative viability ([1]; first compound 0.02 µM)	relative viability ([1]; first compound 0.06325 µM)	relative viability ([1]; first compound 0.2 µM)	relative viability ([1]; first compound 0.6325 µM)	relative viability ([1]; first compound 2 µM)	relative viability ([2]; first compound 0.02 µM)	relative viability ([2]; first compound 0.06325 µM)	relative viability ([2]; first compound 0.2 µM)	relative viability ([2]; first compound 0.6325 µM)	relative viability ([2]; first compound 2 µM)	relative viability ([3]; first compound 0.02 µM)	relative viability ([3]; first compound 0.06325 µM)	relative viability ([3]; first compound 0.2 µM)	relative viability ([3]; first compound 0.6325 µM)	relative viability ([3]; first compound 2 µM)	relative viability ([4]; first compound 0.02 µM)	relative viability ([4]; first compound 0.06325 µM)	relative viability ([4]; first compound 0.2 µM)	relative viability ([4]; first compound 0.6325 µM)	relative viability ([4]; first compound 2 µM)
NCI-H1944	0.391	0.395	0.409	0.395	0.36	0.416	0.422	0.447	0.387	0.426	0.84	0.809	0.893	0.7	0.818	0.216	0.198	0.244	0.202	0.217
HARA	0.89	0.924	0.484	0.827	0.878	0.973	0.921	1.07	0.775	0.885	0.914	0.716	0.564	0.805	0.602	0.537	0.476	0.47	0.362	0.53
NCI-H2126	0.576	0.56	0.569	0.598	0.522	0.871	0.934	0.92	0.936	0.878	0.692	0.726	0.744	0.734	0.797	0.524	0.504	0.582	0.536	0.581
LXF-289	0.619	0.716	0.695	0.612	0.662	0.974	1.08	1.07	1.1	0.976	0.813	0.904	0.88	0.867	0.873	0.514	0.532	0.551	0.513	0.537
NCI-H460	0.161	0.146	0.206	0.224	0.128	0.372	0.488	0.403	0.426	0.411	0.913	1.05	1	0.878	1.03	0.488	0.563	0.517	0.49	0.498
NCI-H1395	1.04	0.984	1.07	1.02	1.06	0.533	0.431	0.478	0.505	0.479	1.01	0.879	1.08	1.04	1.12	0.455	0.415	0.488	0.445	0.462
NCI-H2170	0.928	0.92	1.04	0.866	0.945	0.617	0.607	0.606	0.605	0.542	0.291	0.243	0.273	0.267	0.277	0.357	0.43	0.448	0.338	0.452
NCI-H2009	0.291	0.301	0.289	0.228	0.265	0.651	0.668	0.657	0.671	0.832	0.768	0.954	0.912	0.928	1.13	0.456	0.493	0.47	0.408	0.562
